Measured values: PubChem BioAssay AID1963853 (Molecular Pharmacology Branch, DTP, NCI, 2024)

Tested on: 266295-075-R-J1-PDC spheroid viability
Assay: Anticancer human tumor 266295-075-R-J1-PDC patient-derived head and neck squamous carcinoma cell line growth inhibition [POLQ]
Conditions: spheroids with HUVEC and MSC; for IC50: curve of first compound; for viability, T/C: stronger effect = lower value
Summary of the method: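 Complex spheroid viability model combining PDC tumour cells with endothelial (HUVEC) and MSC stromal cells. Novobiocin, ART-558 or RP6685 were tested singly and in combination with standard and investigational anticancer drugs. Each was titrated in half-log steps from near clinical Cmax, or from 10 microM where Cmax was unknown.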
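Also: spheroids exposed to compounds for seven days before readout.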

**Q.** With `CC[C@@]1(O)C(=O)OCc2c1cc1n(c2=O)Cc2cc3c(CN(C)C)c(O)ccc3nc2-1` + COC1C(OC(N)=O)C(O)C(Oc2ccc3c(O)c(NC(=O)c4ccc(O)c(CC=C(C)C)c4)c(=O)oc3c2C)OC1(C)C as the compound, how does the IC50 (second compound 0.0316 µM) read?
**A.** > 100 nM

**Q.** And the IC50 (second compound 0.1 µM)?
**A.** > 100 nM

**Q.** And the IC50 (second compound 0.316 µM)?
**A.** > 100 nM

**Q.** What about the IC50 (second compound 1 µM) of the same compound?
**A.** > 100 nM

**Q.** What about the IC50 (second compound 3.16 µM) of the same compound?
**A.** > 100 nM

**Q.** And the IC50 (second compound 10 µM)?
**A.** > 100 nM

**Q.** What about the viability, T/C (second compound 0.0316 µM, first compound 0.000316 µM) of the same compound?
**A.** 84.1%

**Q.** What about the viability, T/C (second compound 0.0316 µM, first compound 0.001 µM) of the same compound?
**A.** 99.8%

**Q.** What about the viability, T/C (second compound 0.0316 µM, first compound 0.00316 µM) of the same compound?
**A.** 84.9%

**Q.** What about the viability, T/C (second compound 0.0316 µM, first compound 0.01 µM) of the same compound?
**A.** 96.9%

**Q.** And the viability, T/C (second compound 0.0316 µM, first compound 0.0316 µM)?
**A.** 89.4%

**Q.** What about the viability, T/C (second compound 0.0316 µM, first compound 0.1 µM) of the same compound?
**A.** 104%

**Q.** What about the viability, T/C (second compound 0.1 µM, first compound 0.000316 µM) of the same compound?
**A.** 87.2%

**Q.** What about the viability, T/C (second compound 0.1 µM, first compound 0.001 µM) of the same compound?
**A.** 87.7%

**Q.** And the viability, T/C (second compound 0.1 µM, first compound 0.00316 µM)?
**A.** 90.5%

**Q.** And the viability, T/C (second compound 0.1 µM, first compound 0.01 µM)?
**A.** 100%

**Q.** And the viability, T/C (second compound 0.1 µM, first compound 0.0316 µM)?
**A.** 103%

**Q.** What about the viability, T/C (second compound 0.1 µM, first compound 0.1 µM) of the same compound?
**A.** 88%

**Q.** And the viability, T/C (second compound 0.316 µM, first compound 0.000316 µM)?
**A.** 102%

**Q.** And the viability, T/C (second compound 0.316 µM, first compound 0.001 µM)?
**A.** 85.4%

**Q.** And the viability, T/C (second compound 0.316 µM, first compound 0.00316 µM)?
**A.** 75.8%

**Q.** What about the viability, T/C (second compound 0.316 µM, first compound 0.01 µM) of the same compound?
**A.** 98.2%

**Q.** What about the viability, T/C (second compound 0.316 µM, first compound 0.0316 µM) of the same compound?
**A.** 89.4%

**Q.** And the viability, T/C (second compound 0.316 µM, first compound 0.1 µM)?
**A.** 89.1%

**Q.** And the viability, T/C (second compound 1 µM, first compound 0.000316 µM)?
**A.** 99%

**Q.** What about the viability, T/C (second compound 1 µM, first compound 0.001 µM) of the same compound?
**A.** 90.8%

**Q.** And the viability, T/C (second compound 1 µM, first compound 0.00316 µM)?
**A.** 109%

**Q.** What about the viability, T/C (second compound 1 µM, first compound 0.01 µM) of the same compound?
**A.** 89.2%

**Q.** What about the viability, T/C (second compound 1 µM, first compound 0.0316 µM) of the same compound?
**A.** 114%

**Q.** And the viability, T/C (second compound 1 µM, first compound 0.1 µM)?
**A.** 100%

**Q.** And the viability, T/C (second compound 3.16 µM, first compound 0.000316 µM)?
**A.** 114%

**Q.** And the viability, T/C (second compound 3.16 µM, first compound 0.001 µM)?
**A.** 97%

**Q.** And the viability, T/C (second compound 3.16 µM, first compound 0.00316 µM)?
**A.** 85.3%

**Q.** And the viability, T/C (second compound 3.16 µM, first compound 0.01 µM)?
**A.** 91.2%

**Q.** What about the viability, T/C (second compound 3.16 µM, first compound 0.0316 µM) of the same compound?
**A.** 88.3%

**Q.** And the viability, T/C (second compound 3.16 µM, first compound 0.1 µM)?
**A.** 96.9%

**Q.** And the viability, T/C (second compound 10 µM, first compound 0.000316 µM)?
**A.** 95.8%

**Q.** And the viability, T/C (second compound 10 µM, first compound 0.001 µM)?
**A.** 98.5%

**Q.** And the viability, T/C (second compound 10 µM, first compound 0.00316 µM)?
**A.** 97.8%

**Q.** What about the viability, T/C (second compound 10 µM, first compound 0.01 µM) of the same compound?
**A.** 107%

**Q.** And the viability, T/C (second compound 10 µM, first compound 0.0316 µM)?
**A.** 95.4%

**Q.** And the viability, T/C (second compound 10 µM, first compound 0.1 µM)?
**A.** 94.5%
